Measurements as given in patent publication EP4813403A1, “USE OF GLP-1R/GIPR DOUBLE-TARGET AGONIST IN PREPARING ANIMAL DRUG” (Hangzhou Zhongmeihuadong Pharmaceutical Co., Ltd., priority 2023, dated 2025).

Assays:
Type in all cases: cell-based
Conditions in all cases: ratio of EC50 value of other species to human EC50 value
[1] = system: monkey GIPR; assay: Agonistic activity on GIPR of different species (LANCE Ultra cAMP assay): monkey
Experimental: (§1) CHO-K1 cells were seeded in a 6-well plate at 0.6×10^6 cells/well and incubated overnight in an incubator at a temperature of 37 °C and a carbon dioxide concentration of 5%. The next day, CHO-K1 cell media were replaced. Then two tubes A and B were prepared for each plasmid. 100 µL Opti-MEM was added to tube A, then 4 µL Lipofectamine™ 3000 was added and mixed uniformly. 100 µL Opti-MEM was firstly added to tube B, then 2 µg of one of the plasmids (human GIPR-pcDNA5 (+) plasmid, dog GIPR-pcDNA5 (+) plasmid, mouse GIPR-pcDNA5 (+) plasmid, rat GIPR-pcDNA5 (+) plasmid, rabbit GIPR-pcDNA5 (+) plasmid, monkey GIPR-pcDNA5 (+) plasmid) was added and mixed uniformly, and 4 µL P3000™ was added to tube B and mixed uniformly (the ratio of plasmid to transfection reagent was 1 µg: 2 µL). […]
(§2) 18-20 hours after transfection, human GIPR-CHO, dog GIPR-CHO, mouse GIPR-CHO, rat GIPR-CHO, rabbit GIPR-CHO, and monkey GIPR-CHO cells were resuspended in 1×Casein Stimulation Buffer (HBSS, 5 mM HEPES, 0.5 mM IBMX, 0.1% casein, pH7.4), and seeded into a 384-well cell culture plate at 9 µL/well (cell numbers being 1000, 2000, 2000, 2000, 2000, 2000 cells/well, respectively). […] The readings at 665 nm and 620 nm were determined with a 330 nm excitation light on a microplate reader. The 665 nm/620 nm reading ratio was calculated. […]

[2] = target: T1, human GIPR (Homo sapiens, UniProt P48546); assay: Agonistic activity on GIPR of different species (LANCE Ultra cAMP assay): human
T1 construct: expressed in transfected cells
T1 sequence (P48546 22-466): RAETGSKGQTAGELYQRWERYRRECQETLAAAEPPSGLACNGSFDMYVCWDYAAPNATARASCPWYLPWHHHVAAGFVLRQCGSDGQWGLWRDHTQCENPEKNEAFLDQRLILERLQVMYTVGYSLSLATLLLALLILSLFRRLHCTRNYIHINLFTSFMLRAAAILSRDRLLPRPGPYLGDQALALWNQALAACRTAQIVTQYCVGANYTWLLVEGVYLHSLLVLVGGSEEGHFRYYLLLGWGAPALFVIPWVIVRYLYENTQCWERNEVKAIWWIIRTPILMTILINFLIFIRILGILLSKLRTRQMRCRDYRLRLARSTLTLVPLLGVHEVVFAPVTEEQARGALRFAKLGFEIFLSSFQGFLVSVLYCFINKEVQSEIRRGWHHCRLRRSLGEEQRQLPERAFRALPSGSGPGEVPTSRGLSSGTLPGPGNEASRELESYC
Experimental: as §1, §2

[3] = target: T2, dog GIPR (Canis lupus familiaris, UniProt A0A8I3MPG1); assay: Agonistic activity on GIPR of different species (LANCE Ultra cAMP assay): dog
T2 construct: expressed in transfected cells; host or cells: CHO-K1 (transient)
T2 sequence (A0A8I3MPG1 24-449): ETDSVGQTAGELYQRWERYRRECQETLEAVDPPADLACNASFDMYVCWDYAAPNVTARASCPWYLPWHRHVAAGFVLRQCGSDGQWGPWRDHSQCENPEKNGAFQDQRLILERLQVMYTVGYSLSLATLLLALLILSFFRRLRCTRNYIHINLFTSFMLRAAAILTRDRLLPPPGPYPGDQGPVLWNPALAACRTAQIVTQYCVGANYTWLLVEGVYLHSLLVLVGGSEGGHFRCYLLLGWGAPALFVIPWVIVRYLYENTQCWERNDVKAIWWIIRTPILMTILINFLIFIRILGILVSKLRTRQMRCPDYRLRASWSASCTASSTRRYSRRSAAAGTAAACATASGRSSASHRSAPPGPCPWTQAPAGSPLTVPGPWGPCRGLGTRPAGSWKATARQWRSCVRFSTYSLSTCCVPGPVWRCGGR
Experimental: as §1, §2

[4] = target: human GLP-1R (Homo sapiens, UniProt P43220); assay: Agonistic activity on GLP-1R of different species (LANCE Ultra cAMP assay): human; design: expressed in transfected cells; host or cells: HEK293/CRE/GLP-1R clonal cells
Sequence of human GLP-1R (P43220 24-463): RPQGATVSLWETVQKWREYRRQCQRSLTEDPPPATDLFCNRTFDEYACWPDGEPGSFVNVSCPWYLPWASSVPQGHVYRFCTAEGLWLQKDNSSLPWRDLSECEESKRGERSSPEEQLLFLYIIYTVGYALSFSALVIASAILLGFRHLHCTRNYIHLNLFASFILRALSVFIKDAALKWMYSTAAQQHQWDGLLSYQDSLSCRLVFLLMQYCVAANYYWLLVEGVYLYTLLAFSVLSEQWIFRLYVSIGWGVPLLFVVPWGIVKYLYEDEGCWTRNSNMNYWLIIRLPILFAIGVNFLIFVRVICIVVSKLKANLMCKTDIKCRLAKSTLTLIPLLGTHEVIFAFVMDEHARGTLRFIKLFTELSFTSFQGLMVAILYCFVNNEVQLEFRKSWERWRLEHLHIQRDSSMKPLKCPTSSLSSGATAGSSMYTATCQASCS

CC[C@H](C)[C@H](NC(=O)C(C)(C)NC(=O)[C@H](Cc1ccc(O)cc1)NC(=O)[C@H](CC(=O)O)NC(=O)[C@H](CO)NC(=O)[C@@H](NC(=O)C(C)(Cc1ccccc1)NC(=O)[C@@H](NC(=O)CNC(=O)[C@H](CCC(=O)O)NC(=O)C(C)(C)NC(=O)[C@@H](N)Cc1ccc(O)cc1)[C@@H](C)O)[C@@H](C)O)C(=O)NC(C)(C)C(=O)N[C@@H](CC(C)C)C(=O)N[C@@H](CC(=O)O)C(=O)N[C@@H](CCCCN)C(=O)N[C@@H](CCC(N)=O)C(=O)N[C@@H](C)C(=O)N[C@@H](CCC(N)=O)C(=O)N[C@@H](C)C(=O)N[C@@H](CCC(=O)O)C(=O)N[C@@H](Cc1ccccc1)C(=O)N[C@H](C(=O)N[C@@H](CCCCNC(=O)COCCOCCNC(=O)COCCOCCNC(=O)COCCOCCNC(=O)CC[C@H](NC(=O)CCCCCCCCCCCCCCCCCCCCC(=O)O)C(=O)O)C(=O)N[C@@H](Cc1c[nH]c2ccccc12)C(=O)N[C@@H](CC(C)C)C(=O)N[C@@H](CC(C)C)C(=O)N[C@@H](CCCCN)C(=O)NCC(=O)NCC(=O)N1CCC[C@H]1C(=O)N[C@@H](CO)C(=O)N[C@@H](CO)C(=O)NCC(=O)N[C@@H](C)C(=O)N1CCC[C@H]1C(=O)N1CCC[C@H]1C(=O)N1CCC[C@H]1C(=O)N[C@@H](CO)C(=O)N[C@@H](CCCCN)C(N)=O)C(C)C (stereo partly shown) [Compound P016]
GIPR EC50 ratio [1]: 5.77
GIPR EC50 ratio [2]: 1.00
GIPR EC50 ratio [3]: 2.88
GLP-1R EC50 ratio [4]: 1.00
